Values of other authors, collected in patent US20230399335A1, “PROCESS FOR THE PREPARATION OF ASENAPINE IN THE FORM OF ITS FREE BASE” (LTS LOHMANN Therapie-Systeme AG, priority 2020, published 2023).

Conditions: when taken orally

bioavailability: < 2%
Structure (SMILES): CN1C[C@H]2c3ccccc3Oc3ccc(Cl)cc3[C@@H]2C1 (relative stereo) [asenapine, (3aRS,12bRS)-rel-5-chloro-2,3,3a,12b-tetrahydro-2-methyl-1H-dibenz[2,3:6,7]oxepin [4,5-c]pyrrole]
